Laboratory results as given in ChEMBL document CHEMBL1201862, “PubChem BioAssay data set” (2004).
Activity calls are given as the source filed them.

Columns and labels:
ORF 73 = target: T1, ORF 73 (Human herpesvirus 8, UniProt O40947); assay: inhibitors of C-LANA binding to LBS DNA, dose response, biochemical, fluorescence polarization, cherry-picked samples (AID 504725); design: species or system Human gammaherpesvirus 8;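 also: fluorescence polarization of a labeled DNA duplex reporting LANA DNA binding; potency is for inhibitors that block LANA binding to the DNA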
T1 sequence (O40947 whole entry): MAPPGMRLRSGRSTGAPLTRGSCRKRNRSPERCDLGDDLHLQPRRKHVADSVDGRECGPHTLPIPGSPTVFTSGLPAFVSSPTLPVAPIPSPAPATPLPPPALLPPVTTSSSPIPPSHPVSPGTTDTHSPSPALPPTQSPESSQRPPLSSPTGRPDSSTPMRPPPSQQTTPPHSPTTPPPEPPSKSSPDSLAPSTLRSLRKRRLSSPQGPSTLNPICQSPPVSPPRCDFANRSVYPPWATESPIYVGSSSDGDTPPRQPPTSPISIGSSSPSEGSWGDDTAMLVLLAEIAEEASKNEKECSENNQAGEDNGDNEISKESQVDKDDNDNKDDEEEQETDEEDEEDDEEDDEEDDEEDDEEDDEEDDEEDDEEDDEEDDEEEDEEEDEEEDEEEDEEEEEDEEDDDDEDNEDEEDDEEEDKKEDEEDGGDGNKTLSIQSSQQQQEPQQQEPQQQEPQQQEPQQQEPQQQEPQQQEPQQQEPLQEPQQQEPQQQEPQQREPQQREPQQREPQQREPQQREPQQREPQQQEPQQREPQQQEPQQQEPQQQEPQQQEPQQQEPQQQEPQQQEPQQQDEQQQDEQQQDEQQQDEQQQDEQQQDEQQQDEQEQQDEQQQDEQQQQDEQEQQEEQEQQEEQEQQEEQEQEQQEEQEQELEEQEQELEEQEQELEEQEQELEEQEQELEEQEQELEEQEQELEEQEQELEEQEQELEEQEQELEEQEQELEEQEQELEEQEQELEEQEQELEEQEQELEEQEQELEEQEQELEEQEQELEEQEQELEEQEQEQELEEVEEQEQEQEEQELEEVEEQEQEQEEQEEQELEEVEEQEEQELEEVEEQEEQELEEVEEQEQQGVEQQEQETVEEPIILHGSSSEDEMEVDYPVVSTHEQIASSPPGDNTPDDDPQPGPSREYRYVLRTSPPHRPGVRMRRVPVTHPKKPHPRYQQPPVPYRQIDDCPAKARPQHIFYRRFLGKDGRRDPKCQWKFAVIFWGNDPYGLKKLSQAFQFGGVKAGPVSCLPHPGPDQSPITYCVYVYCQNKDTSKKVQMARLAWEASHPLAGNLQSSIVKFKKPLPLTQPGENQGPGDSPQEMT

Keap1/Nrf2 = Keap1/Nrf2 (Homo sapiens, UniProt Q14145); assay: Keap1-Nrf2 protein-protein interaction inhibitors, dose response, biochemical, fluorescence polarization, cherry-picked samples (AID 588683)
Keap1/Nrf2, sequence (Q16236 whole entry, the tested form may be a part): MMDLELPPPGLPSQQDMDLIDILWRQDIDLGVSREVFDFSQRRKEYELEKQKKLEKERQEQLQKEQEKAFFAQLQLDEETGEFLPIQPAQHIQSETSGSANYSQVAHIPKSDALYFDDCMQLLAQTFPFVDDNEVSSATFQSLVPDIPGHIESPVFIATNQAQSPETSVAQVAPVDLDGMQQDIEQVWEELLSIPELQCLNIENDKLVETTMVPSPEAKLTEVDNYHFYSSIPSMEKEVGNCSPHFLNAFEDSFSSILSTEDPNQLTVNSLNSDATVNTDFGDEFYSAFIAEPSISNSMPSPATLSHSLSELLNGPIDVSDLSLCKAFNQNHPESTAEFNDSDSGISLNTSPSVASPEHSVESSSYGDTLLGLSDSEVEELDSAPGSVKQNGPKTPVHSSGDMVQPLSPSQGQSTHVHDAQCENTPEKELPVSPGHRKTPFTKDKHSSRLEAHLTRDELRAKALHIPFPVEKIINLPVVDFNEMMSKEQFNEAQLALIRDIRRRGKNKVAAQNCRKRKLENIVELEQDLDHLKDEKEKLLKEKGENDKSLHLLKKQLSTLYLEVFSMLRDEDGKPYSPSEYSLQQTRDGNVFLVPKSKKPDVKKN
Keap1/Nrf2, sequence (Q14145 whole entry, the tested form may be a part): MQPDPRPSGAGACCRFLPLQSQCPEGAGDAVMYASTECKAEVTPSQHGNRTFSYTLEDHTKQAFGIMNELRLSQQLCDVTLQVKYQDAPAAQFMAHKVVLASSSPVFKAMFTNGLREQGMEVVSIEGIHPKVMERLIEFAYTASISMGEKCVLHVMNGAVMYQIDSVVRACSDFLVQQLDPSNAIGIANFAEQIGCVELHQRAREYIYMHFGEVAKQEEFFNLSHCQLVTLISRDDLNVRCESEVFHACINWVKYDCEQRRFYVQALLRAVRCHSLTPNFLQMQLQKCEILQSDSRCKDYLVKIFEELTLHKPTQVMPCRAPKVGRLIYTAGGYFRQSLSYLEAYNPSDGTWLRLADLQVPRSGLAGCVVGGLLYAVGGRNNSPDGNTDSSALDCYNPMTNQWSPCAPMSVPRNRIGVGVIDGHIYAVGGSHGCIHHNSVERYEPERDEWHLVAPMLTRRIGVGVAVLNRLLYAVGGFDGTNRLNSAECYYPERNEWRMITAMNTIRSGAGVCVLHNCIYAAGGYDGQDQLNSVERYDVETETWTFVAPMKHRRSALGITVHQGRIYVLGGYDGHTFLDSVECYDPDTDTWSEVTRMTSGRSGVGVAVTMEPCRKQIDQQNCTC

Hexokinase-1 = target: T2, Hexokinase-1 (Homo sapiens, UniProt P19367); assay: SAR analysis of small molecule inhibitors of hexokinase domain containing I (HKDC1) in the hexokinase 1 selectivity assay. [Related pubchem assays (depositor defined):AID493160, AID493190]; assay type: functional
T2 sequence (P19367 whole entry): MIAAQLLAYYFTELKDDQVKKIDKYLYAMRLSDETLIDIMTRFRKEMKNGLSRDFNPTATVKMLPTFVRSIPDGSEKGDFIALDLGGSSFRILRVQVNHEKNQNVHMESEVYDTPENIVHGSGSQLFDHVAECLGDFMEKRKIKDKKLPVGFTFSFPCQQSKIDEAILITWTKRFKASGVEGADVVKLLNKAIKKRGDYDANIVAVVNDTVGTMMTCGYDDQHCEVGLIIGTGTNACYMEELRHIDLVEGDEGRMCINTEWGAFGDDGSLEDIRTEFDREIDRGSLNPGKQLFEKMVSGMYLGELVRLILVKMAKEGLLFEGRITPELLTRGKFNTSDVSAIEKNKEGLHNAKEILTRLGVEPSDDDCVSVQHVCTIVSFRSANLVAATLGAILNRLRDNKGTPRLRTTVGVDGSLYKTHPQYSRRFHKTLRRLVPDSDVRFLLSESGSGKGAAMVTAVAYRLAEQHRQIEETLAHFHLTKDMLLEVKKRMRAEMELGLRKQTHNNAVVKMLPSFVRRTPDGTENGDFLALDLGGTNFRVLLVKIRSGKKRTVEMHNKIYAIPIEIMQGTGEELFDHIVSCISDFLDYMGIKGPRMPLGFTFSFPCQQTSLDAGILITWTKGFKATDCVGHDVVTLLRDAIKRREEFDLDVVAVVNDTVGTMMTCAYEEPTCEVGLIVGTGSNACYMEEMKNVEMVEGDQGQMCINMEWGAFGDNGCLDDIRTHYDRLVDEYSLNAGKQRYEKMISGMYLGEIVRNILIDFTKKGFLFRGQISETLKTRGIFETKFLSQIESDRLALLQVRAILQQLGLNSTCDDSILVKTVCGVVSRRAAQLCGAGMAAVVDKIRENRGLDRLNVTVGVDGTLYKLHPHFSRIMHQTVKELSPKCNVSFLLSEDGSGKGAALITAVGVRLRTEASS

Hexokinase HKDC1 = target: T3, Hexokinase HKDC1 (Homo sapiens, UniProt Q2TB90); assay: SAR analysis of small molecule inhibitors of hexokinase domain containing I (HKDC1). [Related pubchem assays (depositor defined):AID493160, AID493190]; assay type: functional
T3 sequence (Q2TB90 whole entry): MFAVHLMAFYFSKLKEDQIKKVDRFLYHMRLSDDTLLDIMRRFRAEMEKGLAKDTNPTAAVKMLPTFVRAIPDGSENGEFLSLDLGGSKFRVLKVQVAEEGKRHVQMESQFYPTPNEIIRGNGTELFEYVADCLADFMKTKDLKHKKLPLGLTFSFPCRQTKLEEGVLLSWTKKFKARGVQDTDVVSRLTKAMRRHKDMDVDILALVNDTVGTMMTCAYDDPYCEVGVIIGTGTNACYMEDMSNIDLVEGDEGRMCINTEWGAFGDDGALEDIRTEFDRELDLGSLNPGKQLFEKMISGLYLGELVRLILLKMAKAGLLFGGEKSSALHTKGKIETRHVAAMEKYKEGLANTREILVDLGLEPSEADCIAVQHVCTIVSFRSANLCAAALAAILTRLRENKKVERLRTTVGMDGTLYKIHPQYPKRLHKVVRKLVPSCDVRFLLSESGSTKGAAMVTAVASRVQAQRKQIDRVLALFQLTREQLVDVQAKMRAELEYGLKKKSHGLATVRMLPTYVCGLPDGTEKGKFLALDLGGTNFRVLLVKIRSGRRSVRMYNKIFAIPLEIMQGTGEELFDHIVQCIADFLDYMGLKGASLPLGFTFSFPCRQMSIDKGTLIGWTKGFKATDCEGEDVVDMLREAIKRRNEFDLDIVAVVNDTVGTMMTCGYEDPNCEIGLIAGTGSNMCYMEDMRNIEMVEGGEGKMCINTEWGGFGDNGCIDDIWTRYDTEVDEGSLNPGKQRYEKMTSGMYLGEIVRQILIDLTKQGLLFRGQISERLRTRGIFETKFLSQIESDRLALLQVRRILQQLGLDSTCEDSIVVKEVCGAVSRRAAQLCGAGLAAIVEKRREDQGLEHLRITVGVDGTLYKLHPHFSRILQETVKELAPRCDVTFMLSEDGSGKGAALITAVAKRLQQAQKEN

[1] = target: T4, Corticotropin-releasing factor receptor 2/Corticotropin-releasing factor-binding protein (Homo sapiens, UniProt P24387+Q13324); assay: activators of CRF receptor 2 with binding protein – uHTS hits, confirmation (AID 602473); assay type: functional; conditions: read-out: EC50_Mean
T4 sequence (Q13324 whole entry): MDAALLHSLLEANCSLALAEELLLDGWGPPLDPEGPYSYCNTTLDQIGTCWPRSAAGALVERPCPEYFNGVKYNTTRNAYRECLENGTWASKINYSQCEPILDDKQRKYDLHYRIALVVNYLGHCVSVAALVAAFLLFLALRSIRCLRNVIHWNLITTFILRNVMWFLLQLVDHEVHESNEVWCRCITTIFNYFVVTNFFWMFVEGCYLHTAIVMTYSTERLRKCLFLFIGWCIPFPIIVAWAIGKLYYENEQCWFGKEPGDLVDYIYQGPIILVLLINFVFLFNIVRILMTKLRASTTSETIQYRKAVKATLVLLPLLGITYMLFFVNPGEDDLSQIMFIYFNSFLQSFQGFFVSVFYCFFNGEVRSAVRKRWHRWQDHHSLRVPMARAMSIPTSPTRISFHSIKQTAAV
T4 sequence (P24387 whole entry): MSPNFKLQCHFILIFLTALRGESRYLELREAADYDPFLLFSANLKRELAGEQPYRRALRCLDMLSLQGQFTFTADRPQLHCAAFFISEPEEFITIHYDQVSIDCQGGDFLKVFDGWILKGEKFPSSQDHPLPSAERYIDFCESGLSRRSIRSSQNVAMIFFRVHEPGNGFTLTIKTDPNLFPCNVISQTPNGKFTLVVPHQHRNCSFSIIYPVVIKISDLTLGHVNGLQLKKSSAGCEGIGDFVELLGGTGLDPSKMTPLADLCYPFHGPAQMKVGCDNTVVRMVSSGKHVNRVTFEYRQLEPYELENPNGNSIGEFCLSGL

HEK293 = assay: cytotoxicity in HEK293T NF-kB-Luc cells, SAR follow-up, cytotoxicity control for NF-kB activator project, cell-based, resazurin fluorescence (AID 493251); assay type: functional; conditions: Homo sapiens

Compound	AC50 (ORF 73)	AC50 (Keap1/Nrf2)	IC50 (Hexokinase-1)	IC50 (Hexokinase HKDC1)	other results
Cc1cc[n+](-c2[n-]c(=O)sc2/C=N/NC(=O)c2ccccc2)cc1C	13.3 µM (active)	11.8 µM (active)			
O=c1c2ccccc2nc(/C=C/c2ccc(O)cc2)n1Cc1ccccc1			> 80 µM (inactive)	> 80 µM (inactive)	
CCNC(=O)CCc1nc(-c2ccccc2)no1					IC50 (HEK293): > 80 µM (inactive)

Second part, led by results:

AC50 (ORF 73)	AC50 (Keap1/Nrf2)	IC50 (Hexokinase-1)	IC50 (Hexokinase HKDC1)	Compound	other results
		> 80 µM (inactive)	> 80 µM (inactive)	Cc1cc2nnc(SCC(=O)Nc3cccc(S(=O)(=O)N4CCCCC4)c3)n2c2ccccc12	
8.04 µM (active)	5.31 µM (active)			CCC1(c2ccccc2)NC(=O)N(CC(=O)Nc2ccc(OC)nc2)C1=O (stereo not given)	EC50 [1]: 18.6 µM (active)
